# Reference: ChEMBL document CHEMBL1127815, “Homodimeric and heterodimeric bis(amino thiol) oxometal complexes with rhenium(V) and technetium(V). Control of heterodimeric complex formation and an approach to metal complexes that mimic steroid hormones” (J Med Chem, 1994)
# Key:
# Rattus norvegicus [1] = assay: Biodistribution in Sprague-Darwley rat lung at 30 min after intravenous administration of 70g; assay type: ADME, organism-based; settings: in vivo, 0.5 h
# Rattus norvegicus [2] = assay: Biodistribution in Sprague-Darwley rat muscle at 30 min after intravenous administration of 70g; assay type: ADME, organism-based, Muscle tissue; settings: in vivo, 0.5 h
# Rattus norvegicus [3] = assay: Biodistribution in Sprague-Darwley rat muscle at 2 min after intravenous administration of 70g; assay type: ADME, organism-based, Muscle tissue; settings: in vivo
# Rattus norvegicus [4] = assay: Biodistribution in Sprague-Darwley rat liver at 2 min after intravenous administration of 70g; assay type: ADME, organism-based; settings: in vivo
# Rattus norvegicus [5] = assay: Biodistribution in Sprague-Darwley rat kidney at 60 min after intravenous administration of 70g; assay type: ADME, organism-based; settings: in vivo, 1 h
# Rattus norvegicus [6] = assay: Biodistribution in Sprague-Darwley rat heart at 120 min after intravenous administration of 70g; assay type: ADME, organism-based; settings: in vivo, 2 h
# Rattus norvegicus [7] = assay: Biodistribution in Sprague-Darwley rat liver at 120 min after intravenous administration of 70g; assay type: ADME, organism-based; settings: in vivo, 2 h
# Rattus norvegicus [8] = assay: Biodistribution in Sprague-Darwley rat fat at 60 min after intravenous administration of 70g; assay type: ADME, organism-based, Adipose tissue; settings: in vivo, 1 h
# Rattus norvegicus [9] = assay: Biodistribution in Sprague-Darwley rat blood at 2 min after intravenous administration of 70g; assay type: ADME, organism-based; settings: in vivo
# Rattus norvegicus [10] = assay: Biodistribution in Sprague-Darwley rat kidney at 30 min after intravenous administration of 70g; assay type: ADME, organism-based; settings: in vivo, 0.5 h
# Rattus norvegicus [11] = assay: Biodistribution in Sprague-Darwley rat fat at 30 min after intravenous administration of 70g; assay type: ADME, organism-based, Adipose tissue; settings: in vivo, 0.5 h
# Rattus norvegicus [12] = assay: Biodistribution in Sprague-Darwley rat muscle at 60 min after intravenous administration of 70g; assay type: ADME, organism-based, Muscle tissue; settings: in vivo, 1 h
# Rattus norvegicus [13] = assay: Biodistribution in Sprague-Darwley rat kidney at 120 min after intravenous administration of 70g; assay type: ADME, organism-based; settings: in vivo, 2 h
# Rattus norvegicus [14] = assay: Biodistribution in Sprague-Darwley rat rest of brain at 30 min after intravenous administration of 70g; assay type: ADME, organism-based; settings: in vivo, 0.5 h
# Rattus norvegicus [15] = assay: Biodistribution in Sprague-Darwley rat muscle at 15 min after intravenous administration of 70g; assay type: ADME, organism-based, Muscle tissue; settings: in vivo, 0.25 h
# Rattus norvegicus [16] = assay: Biodistribution in Sprague-Darwley rat liver at 15 min after intravenous administration of 70g; assay type: ADME, organism-based; settings: in vivo, 0.25 h
# Rattus norvegicus [17] = assay: Biodistribution in Sprague-Darwley rat rest of brain at 60 min after intravenous administration of 70g; assay type: ADME, organism-based; settings: in vivo, 1 h
# Rattus norvegicus [18] = assay: Biodistribution in Sprague-Darwley rat heart at 15 min after intravenous administration of 70g; assay type: ADME, organism-based; settings: in vivo, 0.25 h
# Rattus norvegicus [19] = assay: Biodistribution in Sprague-Darwley rat heart at 2 min after intravenous administration of 70g; assay type: ADME, organism-based; settings: in vivo
# Rattus norvegicus [20] = assay: Biodistribution in Sprague-Darwley rat blood at 120 min after intravenous administration of 70g; assay type: ADME, organism-based; settings: in vivo, 2 h
# Rattus norvegicus [21] = assay: Biodistribution in Sprague-Darwley rat fat at 2 min after intravenous administration of 70g; assay type: ADME, organism-based, Adipose tissue; settings: in vivo
# Rattus norvegicus [22] = assay: Biodistribution in Sprague-Darwley rat heart at 30 min after intravenous administration of 70g; assay type: ADME, organism-based; settings: in vivo, 0.5 h
# Rattus norvegicus [23] = assay: Biodistribution in Sprague-Darwley rat blood at 30 min after intravenous administration of 70g; assay type: ADME, organism-based; settings: in vivo, 0.5 h
# Rattus norvegicus [24] = assay: Biodistribution in Sprague-Darwley rat lung at 2 min after intravenous administration of 70g; assay type: ADME, organism-based; settings: in vivo
# Rattus norvegicus [25] = assay: Biodistribution in Sprague-Darwley rat lung at 15 min after intravenous administration of 70g; assay type: ADME, organism-based; settings: in vivo, 0.25 h
# Rattus norvegicus [26] = assay: Biodistribution in Sprague-Darwley rat rest of brain at 15 min after intravenous administration of 70g; assay type: ADME, organism-based; settings: in vivo, 0.25 h
# Rattus norvegicus [27] = assay: Biodistribution in Sprague-Darwley rat muscle at 120 min after intravenous administration of 70g; assay type: ADME, organism-based, Muscle tissue; settings: in vivo, 2 h
# Rattus norvegicus [28] = assay: Biodistribution in Sprague-Darwley rat blood at 60 min after intravenous administration of 70g; assay type: ADME, organism-based; settings: in vivo, 1 h
# Rattus norvegicus [29] = assay: Biodistribution in Sprague-Darwley rat fat at 120 min after intravenous administration of 70g; assay type: ADME, organism-based, Adipose tissue; settings: in vivo, 2 h
# Rattus norvegicus [30] = assay: Biodistribution in Sprague-Darwley rat liver at 60 min after intravenous administration of 70g; assay type: ADME, organism-based; settings: in vivo, 1 h
# Rattus norvegicus [31] = assay: Biodistribution in Sprague-Darwley rat lung at 120 min after intravenous administration of 70g; assay type: ADME, organism-based; settings: in vivo, 2 h
# Rattus norvegicus [32] = assay: Biodistribution in Sprague-Darwley rat blood at 15 min after intravenous administration of 70g; assay type: ADME, organism-based; settings: in vivo, 0.25 h
# Rattus norvegicus [33] = assay: Biodistribution in Sprague-Darwley rat lung at 60 min after intravenous administration of 70g; assay type: ADME, organism-based; settings: in vivo, 1 h
# Rattus norvegicus [34] = assay: Biodistribution in Sprague-Darwley rat rest of brain at 2 min after intravenous administration of 70g; assay type: ADME, organism-based; settings: in vivo
# Rattus norvegicus [35] = assay: Biodistribution in Sprague-Darwley rat rest of brain at 120 min after intravenous administration of 70g; assay type: ADME, organism-based; settings: in vivo, 2 h
# Rattus norvegicus [36] = assay: Biodistribution in Sprague-Darwley rat kidney at 15 min after intravenous administration of 70g; assay type: ADME, organism-based; settings: in vivo, 0.25 h
# Rattus norvegicus [37] = assay: Biodistribution in Sprague-Darwley rat liver at 30 min after intravenous administration of 70g; assay type: ADME, organism-based; settings: in vivo, 0.5 h
# Rattus norvegicus [38] = assay: Biodistribution in Sprague-Darwley rat kidney at 2 min after intravenous administration of 70g; assay type: ADME, organism-based; settings: in vivo
# Rattus norvegicus [39] = assay: Biodistribution in Sprague-Darwley rat fat at 15 min after intravenous administration of 70g; assay type: ADME, organism-based, Adipose tissue; settings: in vivo, 0.25 h
# Rattus norvegicus [40] = assay: Biodistribution in Sprague-Darwley rat heart at 60 min after intravenous administration of 70g; assay type: ADME, organism-based; settings: in vivo, 1 h
substance,measurement,setting,value
[N-(2-Mercapto-2-methylpropyl)-N-(4-methoxyphenyl)-aminato][2-(mercaptomethyl)pyridinato]oxotechnetium V,ID/g,Rattus norvegicus [1],0.434%
same,ID/g,Rattus norvegicus [2],0.255%
same,ID/g,Rattus norvegicus [3],0.364%
same,ID/g,Rattus norvegicus [4],4.121%
same,ID/g,Rattus norvegicus [5],1.281%
same,ID/g,Rattus norvegicus [6],0.151%
same,ID/g,Rattus norvegicus [7],2.892%
same,ID/g,Rattus norvegicus [8],1.071%
same,ID/g,Rattus norvegicus [9],0.681%
same,ID/g,Rattus norvegicus [10],1.075%
same,ID/g,Rattus norvegicus [11],0.297%
same,ID/g,Rattus norvegicus [12],0.167%
same,ID/g,Rattus norvegicus [13],1.779%
same,ID/g,Rattus norvegicus [14],0.283%
same,ID/g,Rattus norvegicus [15],0.379%
same,ID/g,Rattus norvegicus [16],3.69%
same,ID/g,Rattus norvegicus [17],0.185%
same,ID/g,Rattus norvegicus [18],0.721%
same,ID/g,Rattus norvegicus [19],3.285%
same,ID/g,Rattus norvegicus [20],0.192%
same,ID/g,Rattus norvegicus [21],0.241%
same,ID/g,Rattus norvegicus [22],0.386%
same,ID/g,Rattus norvegicus [23],0.213%
same,ID/g,Rattus norvegicus [24],4.24%
same,ID/g,Rattus norvegicus [25],0.83%
same,ID/g,Rattus norvegicus [26],0.63%
same,ID/g,Rattus norvegicus [27],0.107%
same,ID/g,Rattus norvegicus [28],0.202%
same,ID/g,Rattus norvegicus [29],1.128%
same,ID/g,Rattus norvegicus [30],3.309%
same,ID/g,Rattus norvegicus [31],0.224%
same,ID/g,Rattus norvegicus [32],0.316%
same,ID/g,Rattus norvegicus [33],0.344%
same,ID/g,Rattus norvegicus [34],1.346%
same,ID/g,Rattus norvegicus [35],0.128%
same,ID/g,Rattus norvegicus [36],1.291%
same,ID/g,Rattus norvegicus [37],2.987%
same,ID/g,Rattus norvegicus [38],3.117%
same,ID/g,Rattus norvegicus [39],0.511%
same,ID/g,Rattus norvegicus [40],0.305%
